Laboratory results from patent publication US20260284152A1, “COMPOSITION COMPRISING GV1001 FOR PREVENTING OR TREATING MACULAR DEGENERATION” (GEMVAX & KAEL CO., LTD., priority 2023, published 2026).

How the values were obtained:
[1] = system: retinal pigment epithelial cell line ARPE-19; assay: Reduction of reactive oxygen species (DCF-DA fluorescence) in H2O2-treated retinal pigment epithelial cells; assay type: cell-based
Excerpt: (§1) Reactive oxygen species were generated by treating retinal pigment epithelial cell line ARPE-19 with hydrogen peroxide (H2O2).
(§2) Degenerated retinal pigment epithelial cells that appear in age-related macular degeneration were set as a model cell line, and epithelial loss of retinal pigment epithelial cells was induced.
Using DCF-DA as a reactive oxygen species dye sample, the change in the level of reactive oxygen species in retinal pigment epithelial cells (ARPE-19) induced by GV1001 was confirmed by fluorescence microscopy, and the results are shown in FIGS. 6A and 6B. DCF-DA fluorescence intensity increased when oxidative stress was induced by H2O2, but decreased by treatment with metformin, a positive control.

[2] = system: retinal pigment epithelial cell line ARPE-19; assay: Reduction of epithelial-mesenchymal transition (cadherin 1 / vimentin, confocal microscope) in H2O2-treated retinal pigment epithelial cells; assay type: cell-based; conditions: ARPE-19, H2O2 50 μM
Excerpt: as §1, §2
The degree of epithelial-mesenchymal transition, which indicates degeneration of retinal pigment epithelial cells, was confirmed by observing changes in cadherin 1 as an epithelial cell marker, and vimentin as a mesenchymal cell marker, using a confocal microscope, and the results are shown in FIG. 7.

[3] = system: C57BL/6 mice injected with NaIO3; assay: Short-term administration in NaIO3 mouse model of age-related macular degeneration (RPE/choroid flat mount, phalloidin); assay type: in vivo; conditions: NaIO3 20 mg/kg IV mice
Excerpt: Mice injected with sodium iodate (NaIO3) are used as a representative model of age-related macular degeneration. A mouse model of age-related macular degeneration was established by injecting NaIO3 into C57BL/6 mice, thereby inducing oxidative stress specific to retinal pigment epithelial cells and causing damage.
To determine whether the disruption of tight junctions in the retinal pigment epithelium caused by NaIO3 administration was inhibited by GV1001, the retinal pigment epithelium/choroid (RPE/choroid) was flat-mounted, and the junctions between epithelial cells were stained with phalloidin samples and observed using a confocal microscope.
To determine whether the disruption of tight junctions in the retinal pigment epithelial cell layer was inhibited by GV1001, the retinal pigment epithelial layer/choroid was flat-mounted, and the junctions between epithelial cells were stained with phalloidin and observed using a confocal microscope.

[4] = system: C57BL/6 mice injected with NaIO3; assay: Long-term administration in NaIO3 mouse model of age-related macular degeneration (RPE/choroid flat mount, phalloidin); assay type: in vivo; conditions: NaIO3 20 mg/kg IV mice; for Tight junction structure of the retinal pigment epithelium: long-term post-treatment; for Tight junction structure of the retinal pigment epithelial layer: long-term pre-treatment
Excerpt: A mouse model of age-related macular degeneration was established by injecting […] into C57BL/6 mice and inducing oxidative stress specifically in retinal pigment epithelial cells to cause damage.
The GV1001 dose determined through an efficacy evaluation test by short-term administration was used for efficacy evaluation in long-term administration.
The animal experimental group for verification of efficacy in reducing retinal pigment epithelial degeneration by long-term administration (3 months) of GV1001 was set up as shown in Table 4 below.
To determine whether the disruption of tight junctions in the retinal pigment epithelium was inhibited by GV1001, the retinal pigment epithelium/choroid was flat-mounted, and the junctions between epithelial cells were stained with phalloidin-stained samples and observed using a confocal microscope to determine the degree of disruption of tight junctions.
To determine whether the disruption of the tight junctions in the retinal pigment epithelium was reduced by long-term GV1001 administration, the retinal pigment epithelium/choroid was flat-mounted, and the junctions between epithelial cells were stained with phalloidin and observed using a confocal microscope.

| Compound | DCF-DA fluorescence intensity (reactive oxygen species) ([1]; ARPE-19, H2O2 50 μM oxidative stress, metformin 1 mM positive control) | Epithelial-mesenchymal transition (cadherin 1, vimentin) ([2]; metformin 1 mM positive control) | Tight junction structure of the retinal pigment epithelial cell layer ([3]; metformin 4 mg/mL in drinking water for 7 days before NaIO3) | DCF-DA fluorescence intensity (reactive oxygen species) ([1]; ARPE-19, H2O2 50 μM, post-treatment (2 h after 24 h H2O2), 0.1 μM) | DCF-DA fluorescence intensity (reactive oxygen species) ([1]; ARPE-19, H2O2 50 μM, post-treatment (2 h after 24 h H2O2), 10 μM) | DCF-DA fluorescence intensity (reactive oxygen species) ([1]; ARPE-19, H2O2 50 μM, pre-treatment (2 h before 24 h H2O2), 0.01 μM) | Epithelial-mesenchymal transition (cadherin 1, vimentin) ([2]; post-treatment, 10 μM) | Epithelial-mesenchymal transition (cadherin 1, vimentin) ([2]; pre-treatment, 0.01 μM) | Tight junction structure of the retinal pigment epithelial cell layer ([3]; short-term post-treatment, 0.5 mg/kg SC three times within one week from 10 days after NaIO3) | Tight junction structure of the retinal pigment epithelial cell layer ([3]; short-term post-treatment, 1.0 mg/kg SC three times within one week from 10 days after NaIO3) | Tight junction structure of the retinal pigment epithelial cell layer ([3]; short-term pre-treatment, 0.1 mg/kg SC three times a week for two weeks) | Tight junction structure of the retinal pigment epithelium ([4]; 0.1 mg/kg SC three times a week for 10 weeks) | Tight junction structure of the retinal pigment epithelium ([4]; 1.0 mg/kg SC three times a week for 10 weeks) | Tight junction structure of the retinal pigment epithelial layer ([4]; 0.1 mg/kg SC three times a week for 12 weeks) | Tight junction structure of the retinal pigment epithelial layer ([4]; 1.0 mg/kg SC three times a week for 12 weeks) |
| --- | --- | --- | --- | --- | --- | --- | --- | --- | --- | --- | --- | --- | --- | --- | --- |
| CN(C)C(=N)N=C(N)N [metformin, reference compound] | decreased | reduced | maintained |  |  |  |  |  |  |  |  |  |  |  |  |
| GV1001: A peptide consisting of 16 amino acids, having the amino acid sequence of SEQ ID NO: 1, derived from human telomerase (EARPALLTSRLRFIPK; UniProt O14746 611-626, looked up, fragment) |  |  |  | decreased | decreased | decreased | reduced | reduced | maintained | maintained | maintained | well maintained | well maintained | well maintained | well maintained |
